Test results from US10597366B2, “Aryl ethers and uses thereof” (Peloton Therapeutics, Inc., priority 2013, dated 2020).

System: 786-O-Hif-Luc cells (luciferase gene driven by multiple HIF responsive elements)
Assay: Luciferase Assay
Format: cell-based
Settings: 24 h, 786-O-Hif-Luc cells, about 24 hours; read-out: Mean Luciferease EC50
Protocol: A pool of infected cells were then selected against 2 μg/mL of puromycin (P8833, Sigma) for 10 days followed by limited dilution to select single clones.
Each concentration was tested in triplicate. After about 24 hours, luciferase activity was determined using ONE-Glo Luciferase Assay Reagent (E6110, Promega) following the manufacturer's recommended procedure. EC50 were calculated by using Dotmatics software.

| EC50 | SMILES |
| --- | --- |
| 12100 nM | CC(=O)c1c(S(=O)(=O)C(F)(F)F)ccc(Oc2cc(F)cc(Cl)c2)c1Br [Compound 104, 1-(2-Bromo-3-(3-chloro-5-fluorophenoxy)-6-((trifluoromethyl)sulfonyl)phenyl)ethan-1-one] |
| 960 nM | O=S(=O)(c1ccc(Oc2cncc(Cl)c2)c2c1[C@H](O)CC2)C(F)F [Compound 3, (R)-4-((5-chloropyridin-3-yl)oxy)-7-((difluoromethyl)sulfonyl)-2,3-dihydro-1H-inden-1-ol] |
| 63 nM | CS(=O)(=O)c1ccc(Oc2cccc(C#N)c2)c2c1[C@H](O)C(F)(F)C2 [Compound 162, 3-[(1S)-2,2-Difluoro-1-hydroxy-7-methylsulfonyl-indan-4-yl]oxybenzonitrile] |
| 2000 nM | O=S(=O)(c1ccc(Oc2cc(F)cc(Cl)c2)c(Br)c1)C(F)F [Compound 131, 2-Bromo-1-(3-chloro-5-fluorophenoxy)-4-((difluoromethyl)sulfonyl)benzene] |
| 7600 nM | N#Cc1cc(F)cc(Oc2ccc(S(=O)(=O)C(F)(F)F)c(C#N)c2Br)c1 [Compound 100, 2-Bromo-3-(3-cyano-5-fluorophenoxy)-6-((trifluoromethyl)sulfonyl)benzonitrile] |
| 1380 nM | N#Cc1c(S(=O)(=O)C(F)(F)F)ccc(Oc2cc(F)cc(Cl)c2)c1Cl [Compound 111, 2-Chloro-3-(3-chloro-5-fluorophenoxy)-6-((trifluoromethyl)sulfonyl)benzonitrile] |
| 2670 nM | O=C1CCc2c(Oc3cc(F)cc(Cl)c3)ccc(S(=O)(=O)C(F)F)c21 [Compound 18, 4-(3-chloro-5-fluorophenoxy)-7-((difluoromethyl)sulfonyl)-2,3-dihydro-1H-inden-1-one] |
| 8800 nM | N=S(=O)(c1ccc(Oc2cc(F)cc(Cl)c2)c(Br)c1Cl)C(F)(F)F (stereo not drawn) [Compound 75, (3-bromo-2-chloro-4-(3-chloro-5-fluorophenoxy)phenyl)(imino)(trifluoromethyl)-λ^6-sulfanone] |
| 760 nM | CS(=O)(=O)c1ccc(Oc2cc(F)cc(C#N)c2)c(C(F)F)c1C#N [Compound 94, 3-(3-Cyano-5-fluorophenoxy)-2-(difluoromethyl)-6-(methylsulfonyl)benzonitrile] |
| 480 nM | CS(=O)(=O)c1ccc(Oc2cncc(Br)c2)c2c1[C@H](O)C(F)(F)C2 [Compound 324, (S)-4-((5-Bromopyridin-3-yl)oxy)-2,2-difluoro-7-(methylsulfonyl)-2,3-dihydro-1H-inden-1-ol] |
| 2280 nM | C[S+]([O-])c1ccc(Oc2cc(F)cc(C#N)c2)c2c1[C@H](O)C(F)(F)C2 (stereo partly drawn) [Compound 272, 3-[(1S)-2,2-Difluoro-1-hydroxy-7-methylsulfinyl-indan-4-yl]oxy-5-fluoro-benzonitrile] |
| 430 nM | Cc1c(Oc2cc(F)cc(C#N)c2)ccc(S(=O)(=O)C(F)(F)F)c1C=O [Compound 145, 3-Fluoro-5-[3-formyl-2-methyl-4-(trifluoromethylsulfonyl)phenoxy]benzonitrile] |
| 120 nM | N#Cc1cc(F)cc(Oc2ccc(S(=O)(=O)C(F)F)c3c2CC(F)(F)[C@@H]3O)c1 [Compound 237, (R)-3-((7-((difluoromethyl)sulfonyl)-2,2-difluoro-1-hydroxy-2,3-dihydro-1H-inden-4-yl)oxy)-5-fluorobenzonitrile] |
| 1900 nM | N#Cc1cc(F)cc(Oc2ccc(S(=O)(=O)C3CCC3)c3c2CC(F)(F)[C@H]3O)c1 [Compound 209, (S)-3-((7-(Cyclobutylsulfonyl)-2,2-difluoro-1-hydroxy-2,3-dihydro-1H-inden-4-yl)oxy)-5-fluorobenzonitrile] |
| 510 nM | O=S(=O)(CF)c1ccc(Oc2cccc3sccc23)c2c1C(O)C(F)(F)C2 (stereo not drawn) [Compound 242, 4-(Benzo[b]thiophen-4-yloxy)-2,2-difluoro-7-((fluoromethyl)sulfonyl)-2,3-dihydro-1H-inden-1-ol] |
| 67 nM | N#Cc1cc(F)cc(Oc2ccc(S(N)(=O)=O)c3c2[C@@H](F)[C@@H](F)[C@H]3O)c1 [Compound 336, (1R,2S,3S)-7-(3-cyano-5-fluoro-phenoxy)-1,2-difluoro-3-hydroxy-indane-4-sulfonamide] |
| 9000 nM | O=S(=O)(c1ccc(Oc2cc(F)cc(Cl)c2)c(Cl)c1CNCCF)C(F)(F)F [Compound 114, N-(2-Chloro-3-(3-chloro-5-fluorophenoxy)-6-((trifluoromethyl)sulfonyl)benzyl)-2-fluoroethan-1-amine] |
| 1390 nM | O=[N+]([O-])c1ccc(Oc2cc(F)cc(Cl)c2)c2c1C(O)CC2 (stereo not drawn) [Compound 255, 4-(3-Chloro-5-fluorophenoxy)-7-nitro-2,3-dihydro-1H-inden-1-ol] |
| 390 nM | Cc1c(Oc2cc(F)cc(C#N)c2)ccc(S(=O)(=O)C(F)(F)F)c1Cl [Compound 144, 3-Fluoro-5-[3-chloro-2-methyl-4-(trifluoromethylsulfonyl)phenoxy]benzonitrile] |
| 220 nM | N#Cc1cc(F)cc(Oc2ccc(S(N)(=O)=O)c3c2C[C@@H](F)[C@H]3O)c1 [Compound 334, (2R,3S)-7-(3-cyano-5-fluoro-phenoxy)-2-fluoro-3-hydroxy-indane-4-sulfonamide] |
| 1500 nM | N#Cc1cc(F)cc(Oc2ccc(S(=O)(=O)C(F)(F)F)cc2Br)c1 [Compound 118, 3-(2-Bromo-4-((trifluoromethyl)sulfonyl)phenoxy)-5-fluorobenzonitrile] |
| 1900 nM | Cc1c(S(=O)(=O)C(F)F)ccc(Oc2cc(F)cc(Cl)c2)c1C#N [Compound 32, 6-(3-Chloro-5-fluorophenoxy)-3-((difluoromethyl)sulfonyl)-2-methylbenzonitrile] |
| 180 nM | Cn1cc(Oc2ccc(S(=O)(=O)C(F)(F)F)c3c2CC(F)(F)[C@H]3O)cn1 [Compound 224, (S)-2,2-Difluoro-4-((1-methyl-1H-pyrazol-4-yl)oxy)-7-((trifluoromethyl)sulfonyl)-2,3-dihydro-1H-inden-1-ol] |
| 1290 nM | O=S(=O)(c1ccc(Oc2cc(F)cc(F)c2)c2c1CC(O)C2)C(F)F (stereo not drawn) [Compound 22, 4-((Difluoromethyl)sulfonyl)-7-(3,5-difluorophenoxy)-2,3-dihydro-1H-inden-2-ol] |
| 340 nM | O=Cc1c(S(=O)(=O)C(F)(F)F)ccc(Oc2cc(F)cc(Cl)c2)c1Cl [Compound 112, 2-Chloro-3-(3-chloro-5-fluorophenoxy)-6-((trifluoromethyl)sulfonyl)benzaldehyde] |
| 98 nM | O=S(=O)(CF)c1ccc(Oc2cncc(Cl)c2)c2c1[C@H](O)C(F)(F)C2 [Compound 187, (S)-4-((5-Chloropyridin-3-yl)oxy)-2,2-difluoro-7-((fluoromethyl)sulfonyl)-2,3-dihydro-1H-inden-1-ol] |
| 1600 nM | O=S(=O)(c1ccc(Oc2ccc(F)cc2)c2c1C(O)CC2)C(F)(F)F (stereo not drawn) [Compound 212, 4-(4-Fluorophenoxy)-7-((trifluoromethyl)sulfonyl)-2,3-dihydro-1H-inden-1-ol] |
| 2300 nM | CCS(=O)(=O)c1ccc(Oc2cc(F)cc(Cl)c2)c2c1C(O)CC2 (stereo not drawn) [Compound 91, 4-(3-Chloro-5-fluorophenoxy)-7-(ethylsulfonyl)-2,3-dihydro-1H-inden-1-ol] |
| 4000 nM | O=C1c2c(S(=O)(=O)C(F)F)ccc(Oc3cncc(Cl)c3)c2CC1(F)F [Compound 182, 4-((5-Chloropyridin-3-yl)oxy)-7-((difluoromethyl)sulfonyl)-2,2-difluoro-2,3-dihydro-1H-inden-1-one] |
| 2100 nM | N#Cc1cc(F)cc(Oc2ccc(S(=N)(=O)C(F)(F)F)c3c2CCC3O)c1 (stereo not drawn) [Compound 258, 3-Fluoro-5-((1-hydroxy-7-(S-(trifluoromethyl)sulfonimidoyl)-2,3-dihydro-1H-inden-4-yl)oxy)benzonitrile] |

Same assay, conditions: 24 h, read-out: Mean Luciferease EC50

| EC50 | SMILES |
| --- | --- |
| 120 nM | CNS(=O)(=O)c1ccc(Oc2cc(F)cc(C#N)c2)c2c1[C@H](O)C(F)(F)C2 [Compound 254, (S)-7-(3-Cyano-5-fluorophenoxy)-2,2-difluoro-3-hydroxy-N-methyl-2,3-dihydro-1H-indene-4-sulfonamide] |
| 24 nM | [2H][C@]1(O)c2c(S(C)(=O)=O)ccc(Oc3cc(F)cc(C#N)c3)c2CC1(F)F [Compound 247, (S)-3-((2,2-Difluoro-1-hydroxy-7-(methylsulfonyl)-2,3-dihydro-1H-inden-4-yl-1-d)oxy)-5-fluorobenzonitrile] |

| SMILES | EC50 |
| --- | --- |
| N#Cc1cc(F)cc(Oc2ccc(S(=O)(=O)C(F)F)c3c2CC[C@H]3O)c1 [Compound 155, 3-[(1R)-7-(difluoromethylsulfonyl)-1-hydroxy-indan-4-yl]oxy-5-fluoro-benzonitrile] | 130 nM |

System: HIF-2α HIS TAG-PASB Domain
Assay: HIF-2α Scintillation Proximity Assay (SPA)
Format: binding
Settings: compounds listed by structure and IUPAC name
Protocol: The percent inhibition was determined and IC50 values were calculated using the Dotmatics system based on the following equation: % inhibition=[(high control sample)/(high control low control)]×100.

| IC50 | SMILES |
| --- | --- |
| > 100 µM | CC(=O)c1ccc(Oc2cc(F)cc(Cl)c2)c(Br)c1C#N [6-acetyl-2-bromo-3-(3-chloro-5-fluoro-phenoxy)benzonitrile] |
| > 100 µM | CC(C)(C)[S+]([O-])NC1c2c(S(C)(=O)=O)ccc(Oc3cc(F)cc(C#N)c3)c2CC1(F)F (stereo not drawn) [N-[4-(3-cyano-5-fluoro-phenoxy)-2,2-difluoro-7-methylsulfonyl-indan-1-yl]-2-methyl-propane-2-sulfinamide] |
| > 100 µM | O=C(O)c1c(S(=O)(=O)C(F)F)ccc(Oc2cc(F)cc(Cl)c2)c1Br [2-bromo-3-(3-chloro-5-fluoro-phenoxy)-6-(difluoromethylsulfonyl)benzoic acid] |
| > 100 µM | NC(=O)c1cc(F)cc(Oc2ccc(S(=O)(=O)C(F)(F)F)cc2Br)c1 [3-[2-bromo-4-(trifluoromethylsulfonyl)phenoxy]-5-fluoro-benzamide] |
| > 100 µM | N#Cc1cccc(Oc2ccc(S(=O)(=O)C(F)F)c3cccnc23)c1 [3-[[5-(difluoromethylsulfonyl)-8-quinolyl]oxy]benzonitrile] |
| > 100 µM | Cc1cc(S(C)(=O)=O)c2c(c1Oc1cc(F)cc(C#N)c1)CCC2O (stereo not drawn) [3-fluoro-5-(1-hydroxy-5-methyl-7-methylsulfonyl-indan-4-yl)oxy-benzonitrile] |
